Experimental data from ChEMBL document CHEMBL5608181, “Discovery of indazole inhibitors for heat shock protein 90 as anti-cancer agents” (Eur J Med Chem, 2024).
Calls of active or inactive are those of the source. The rule behind the calls is not given here.

Key:
CYP3A4 = CYP3A4 (Homo sapiens, UniProt P08684); assay: Inhibition of CYP3A4 (unknown origin) at 10 uM relative to control; assay type: ADME
CYP2C9 = CYP2C9 (Homo sapiens, UniProt P11712); assay: Inhibition of CYP2C9 (unknown origin) at 10 uM relative to control; assay type: ADME
[1] = system: Trastuzumab-resistant JIMT-1; assay: Downregulation of AKT expression in human Trastuzumab-resistant JIMT-1 cell at 10 uM measured upto 72 hrs by Western blot analysis; assay type: functional, cell-based
[2] = AUC/dose in Sprague-Dawley rat at 5 mg/kg, iv; assay type: ADME, organism-based; details: in vivo
[3] = AUClast in Sprague-Dawley rat at 5 mg/kg, iv; assay type: ADME, organism-based; details: in vivo
[4] = system: Trastuzumab-resistant JIMT-1; assay: Downregulation of cyclinD1 level in human Trastuzumab-resistant JIMT-1 cell at 10 uM measured upto 72 hrs by Western blot analysis; assay type: functional, cell-based
[5] = Toxicity in female BALB/c nude mouse assessed as effect on body weight at 20 mg/kg, ip administered every other day for 40 days; assay type: organism-based; details: in vivo, 960 h, time 40 day
hERG (KCNH2) [6] = target: T1, hERG (KCNH2) (Homo sapiens, UniProt Q12809); assay: Inhibition of human ERG expressed in CHO cells at 30 uM by whole-cell patch clamp assay relative to control; assay type: toxicity, cell-based; details: CHO cells expressing hERG
Homo sapiens = species on record: Homo sapiens; assay: Inhibition of N-terminal HSP90 (unknown origin) at 10 uM by AlphaLISA assay
HEK293 = assay: Cytotoxicity against HEK293 cells assessed as reduction in cell viability at 10 uM measured after 72 hrs by CellTiter 96 Aqueous One Solution Cell Proliferation Assay; assay type: toxicity, cell-based; details: human, hek293, 72 h
hERG (KCNH2) [7] = target: T1, hERG (KCNH2); assay: Inhibition of human ERG at 10 uM by fluorescence polarization assay relative to control
[8] = Metabolic stability in human liver microsomes assessed as parent compound remaining measured after 30 mins; assay type: ADME, Microsome; details: read-out: Stability
[9] = Volume of distribution in Sprague-Dawley rat at 5 mg/kg, iv; assay type: ADME, organism-based; details: in vivo
[10] = MRTinfinity in Sprague-Dawley rat at 5 mg/kg, iv; assay type: ADME, organism-based; details: in vivo
[11] = target: Heat shock protein HSP 90-alpha (Homo sapiens) (UniProt P07900); assay: Inhibition of PPID binding to C-terminal Hsp90-alpha CTD (unknown origin) at 500 uM by Alpha screen microplate reader analysis
[12] = C0 in Sprague-Dawley rat at 5 mg/kg, iv; assay type: ADME, organism-based; details: in vivo
[13] = target: Heat shock protein HSP 90-alpha (Homo sapiens) (UniProt P07900); assay: Inhibition of HSP90alpha in human Trastuzumab-resistant JIMT-1 cell assessed as reduction in HER2 phosphorylation level at Tyr1221/1222 residues at 10 uM measured upto 72 hrs by Western blot analysis; assay type: cell-based
CYP1A2 = target: T2, CYP1A2 (Homo sapiens, UniProt P05177); assay: Inhibition of CYP1A2 (unknown origin) at 10 uM relative to control; assay type: ADME
T2 sequence (P05177 whole entry): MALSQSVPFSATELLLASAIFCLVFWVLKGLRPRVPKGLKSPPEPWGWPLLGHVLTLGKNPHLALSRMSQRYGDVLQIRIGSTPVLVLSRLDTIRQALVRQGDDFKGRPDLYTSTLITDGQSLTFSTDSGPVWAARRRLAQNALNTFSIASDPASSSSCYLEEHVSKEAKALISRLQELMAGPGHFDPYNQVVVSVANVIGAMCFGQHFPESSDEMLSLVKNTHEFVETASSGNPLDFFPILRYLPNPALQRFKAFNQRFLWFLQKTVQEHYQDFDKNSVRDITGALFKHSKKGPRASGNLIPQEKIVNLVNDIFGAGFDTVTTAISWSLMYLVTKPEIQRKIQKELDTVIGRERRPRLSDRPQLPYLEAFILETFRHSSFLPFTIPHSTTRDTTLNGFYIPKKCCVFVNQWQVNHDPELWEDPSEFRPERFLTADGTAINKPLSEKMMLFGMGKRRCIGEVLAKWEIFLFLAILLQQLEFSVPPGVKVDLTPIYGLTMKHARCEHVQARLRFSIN

[14] = Clearance in Sprague-Dawley rat at 10 mg/kg, po; assay type: ADME, organism-based; details: in vivo
CYP2D6 = CYP2D6 (Homo sapiens, UniProt P10635); assay: Inhibition of CYP2D6 (unknown origin) at 10 uM relative to control; assay type: ADME
JIMT-1 = assay: Antiproliferative activity against human JIMT-1 cells assessed as inhibition of cell viability at 10 uM measured after 72 hrs by CellTiter 96 Aqueous One Solution Cell Proliferation Assay relative to control; assay type: functional
[15] = AUCinfinity in Sprague-Dawley rat at 5 mg/kg, iv; assay type: ADME, organism-based; details: in vivo
[16] = Antiproliferative activity against human Trastuzumab-sensitive BT474 cell assessed as inhibition of cell viability measured after 72 hrs by CellTiter 96 Aqueous One Solution Cell Proliferation Assay; assay type: functional, cell-based; details: BT-474, 72 h
[17] = MRTinfinity in Sprague-Dawley rat at 10 mg/kg, po; assay type: ADME, organism-based; details: in vivo
[18] = Genotoxicity in Salmonella typhimurium TA100 in presence of rat liver S9 fraction by Ames test; assay type: toxicity, subcellular; details: salmonella enterica subsp. enterica serovar typhimurium
[19] = Metabolic stability in rat liver microsomes assessed as parent compound remaining measured after 30 mins; assay type: ADME, Microsome; details: read-out: Stability
[20] = AUClast in Sprague-Dawley rat at 10 mg/kg, po; assay type: ADME, organism-based; details: in vivo
BT-474 [21] = assay: Downregulation of cyclinD1 level in human Trastuzumab-sensitive BT474 cell at 10 uM measured upto 72 hrs by Western blot analysis; assay type: functional, cell-based
[22] = target: Heat shock protein HSP 90-alpha (Homo sapiens) (UniProt P07900); assay: Inhibition of HSP90alpha in human Trastuzumab-sensitive BT474 cells assessed as reduction in HER2 phosphorylation level at Tyr1221/1222 residues at 10 uM measured upto 72 hrs by Western blot analysis; assay type: cell-based
CYP2C19 = CYP2C19 (Homo sapiens, UniProt P33261); assay: Inhibition of CYP2C19 (unknown origin) at 10 uM relative to control; assay type: ADME
[23] = Genotoxicity in Salmonella typhimurium TA98 in absence of rat liver S9 fraction by Ames test; assay type: toxicity; details: salmonella enterica subsp. enterica serovar typhimurium
BT-474 [24] = assay: Downregulation of AKT expression in human Trastuzumab-sensitive BT474 cell at 10 uM measured upto 72 hrs by Western blot analysis; assay type: functional, cell-based
BT-474 [25] = assay: Downregulation of HER2 expression in human Trastuzumab-sensitive BT474 cell at 10 uM measured upto 72 hrs by Western blot analysis; assay type: functional, cell-based
BT-474 [26] = assay: Downregulation of survivin protein level in human Trastuzumab-sensitive BT474 cell at 10 uM measured upto 72 hrs by Western blot analysis; assay type: functional, cell-based
[27] = system: Trastuzumab-resistant JIMT-1; assay: Antitumor activity against human Trastuzumab-resistant JIMT-1 cell xenografted in female BALB/c nude mouse assessed as inhibition of tumor weight at 20 mg/kg, ip administered every other day for 40 days; assay type: functional, organism-based; details: time 40.0 day
[28] = AUC/dose in Sprague-Dawley rat at 10 mg/kg, po; assay type: ADME, organism-based; details: in vivo
[29] = Half life in Sprague-Dawley rat at 5 mg/kg, iv; assay type: ADME, organism-based; details: in vivo
hERG (KCNH2) [30] = target: T1, hERG (KCNH2); assay: Inhibition of human ERG expressed in CHO cells at 3 uM by whole-cell patch clamp assay relative to control; assay type: toxicity, cell-based; details: CHO cells expressing hERG
[31] = Tmax in Sprague-Dawley rat at 10 mg/kg, po; assay type: ADME, organism-based; details: in vivo
[32] = system: Trastuzumab-resistant JIMT-1; assay: Downregulation of survivin protein level in human Trastuzumab-resistant JIMT-1 cell at 10 uM measured upto 72 hrs by Western blot analysis; assay type: functional, cell-based
[33] = system: Trastuzumab-resistant JIMT-1; assay: Antiproliferative activity against human Trastuzumab-resistant JIMT-1 cell assessed as inhibition of cell viability measured after 72 hrs by CellTiter 96 Aqueous One Solution Cell Proliferation Assay; assay type: functional, cell-based; details: Trastuzumab-resistant JIMT-1, 72 h
[34] = system: Trastuzumab-resistant JIMT-1; assay: Antitumor activity against human Trastuzumab-resistant JIMT-1 cell xenografted in female BALB/c nude mouse assessed as inhibition of tumor volume at 20 mg/kg, ip administered every other day for 40 days; assay type: functional, organism-based; details: time 40.0 day
[35] = target: Heat shock protein HSP 90-alpha (Homo sapiens) (UniProt P07900); assay: Inhibition of HSP90alpha in human Trastuzumab-resistant JIMT-1 cell assessed as reduction in Akt phosphorylation level at Ser473 residues at 10 uM measured upto 72 hrs by Western blot analysis; assay type: cell-based
BT-474 [36] = assay: Antiproliferative activity against human BT-474 cells assessed as inhibition of cell viability at 10 uM measured after 72 hrs by CellTiter 96 Aqueous One Solution Cell Proliferation Assay relative to control; assay type: functional
[37] = Stability in human plasma assessed as compound remaining incubated for 120 mins; assay type: ADME, cell-free; details: read-out: Stability
[38] = Oral bioavailability in Sprague-Dawley rat at 10 mg/kg; assay type: ADME, organism-based; details: in vivo
[39] = system: Trastuzumab-resistant JIMT-1; assay: Downregulation of HER2 expression in human Trastuzumab-resistant JIMT-1 cell at 10 uM measured upto 72 hrs by Western blot analysis; assay type: functional, cell-based
[40] = Half life in Sprague-Dawley rat at 10 mg/kg, po; assay type: ADME, organism-based; details: in vivo
[41] = Clearance in Sprague-Dawley rat at 5 mg/kg, iv; assay type: ADME, organism-based; details: in vivo
[42] = system: Trastuzumab-resistant JIMT-1; assay: Antitumor activity against human Trastuzumab-resistant JIMT-1 cell xenografted in female BALB/c nude mouse assessed as inhibition of tumor burden at 20 mg/kg, ip administered every other day for 40 days; assay type: functional, organism-based; details: time 40.0 day
[43] = target: Heat shock protein HSP 90-alpha (Homo sapiens) (UniProt P07900); assay: Inhibition of HSP90alpha in human Trastuzumab-sensitive BT474 cell assessed as reduction in Akt phosphorylation level at Ser473 residues at 10 uM measured upto 72 hrs by Western blot analysis; assay type: cell-based
[44] = Genotoxicity in Salmonella typhimurium TA100 in absence of rat liver S9 fraction by Ames test; assay type: toxicity; details: salmonella enterica subsp. enterica serovar typhimurium
[45] = Genotoxicity in Salmonella typhimurium TA98 in presence of rat liver S9 fraction by Ames test; assay type: toxicity, subcellular; details: salmonella enterica subsp. enterica serovar typhimurium
[46] = Stability in rat plasma assessed as compound remaining incubated for 120 mins; assay type: ADME, cell-free; details: read-out: Stability
[47] = AUCinfinity in Sprague-Dawley rat at 10 mg/kg, po; assay type: ADME, organism-based; details: in vivo
[48] = Cmax in Sprague-Dawley rat at 10 mg/kg, po; assay type: ADME, organism-based; details: in vivo
[49] = Volume of distribution in Sprague-Dawley rat at 10 mg/kg, po; assay type: ADME, organism-based; details: in vivo

T1 sequence (Q12809 whole entry): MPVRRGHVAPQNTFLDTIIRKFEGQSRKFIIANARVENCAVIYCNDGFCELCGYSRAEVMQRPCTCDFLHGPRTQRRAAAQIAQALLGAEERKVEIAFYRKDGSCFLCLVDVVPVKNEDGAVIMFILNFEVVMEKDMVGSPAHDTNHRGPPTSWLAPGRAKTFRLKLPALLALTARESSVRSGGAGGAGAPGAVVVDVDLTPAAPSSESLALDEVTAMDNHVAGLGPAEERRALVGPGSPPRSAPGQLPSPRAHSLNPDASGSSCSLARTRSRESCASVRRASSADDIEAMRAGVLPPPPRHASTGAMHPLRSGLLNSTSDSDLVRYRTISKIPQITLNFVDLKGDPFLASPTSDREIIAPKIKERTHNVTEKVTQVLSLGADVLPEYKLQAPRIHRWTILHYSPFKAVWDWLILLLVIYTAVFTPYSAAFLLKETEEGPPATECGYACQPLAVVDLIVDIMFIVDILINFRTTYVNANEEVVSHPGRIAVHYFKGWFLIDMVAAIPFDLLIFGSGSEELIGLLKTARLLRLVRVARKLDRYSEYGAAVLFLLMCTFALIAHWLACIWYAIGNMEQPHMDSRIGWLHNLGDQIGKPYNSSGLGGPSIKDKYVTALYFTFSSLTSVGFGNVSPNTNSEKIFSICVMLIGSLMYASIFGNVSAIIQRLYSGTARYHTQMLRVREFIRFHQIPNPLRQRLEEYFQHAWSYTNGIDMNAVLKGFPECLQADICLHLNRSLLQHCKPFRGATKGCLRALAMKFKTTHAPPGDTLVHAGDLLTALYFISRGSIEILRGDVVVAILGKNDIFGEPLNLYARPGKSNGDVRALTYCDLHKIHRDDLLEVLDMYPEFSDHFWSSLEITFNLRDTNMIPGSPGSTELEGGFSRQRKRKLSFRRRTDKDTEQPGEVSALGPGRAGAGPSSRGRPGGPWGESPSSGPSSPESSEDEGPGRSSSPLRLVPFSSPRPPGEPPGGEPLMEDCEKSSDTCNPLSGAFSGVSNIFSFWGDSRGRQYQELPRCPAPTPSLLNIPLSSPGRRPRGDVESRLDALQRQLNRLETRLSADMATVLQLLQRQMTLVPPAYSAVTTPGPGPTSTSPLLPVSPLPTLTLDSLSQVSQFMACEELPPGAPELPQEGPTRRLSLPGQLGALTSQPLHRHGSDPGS
Sequence of CYP2C9 (P11712 whole entry): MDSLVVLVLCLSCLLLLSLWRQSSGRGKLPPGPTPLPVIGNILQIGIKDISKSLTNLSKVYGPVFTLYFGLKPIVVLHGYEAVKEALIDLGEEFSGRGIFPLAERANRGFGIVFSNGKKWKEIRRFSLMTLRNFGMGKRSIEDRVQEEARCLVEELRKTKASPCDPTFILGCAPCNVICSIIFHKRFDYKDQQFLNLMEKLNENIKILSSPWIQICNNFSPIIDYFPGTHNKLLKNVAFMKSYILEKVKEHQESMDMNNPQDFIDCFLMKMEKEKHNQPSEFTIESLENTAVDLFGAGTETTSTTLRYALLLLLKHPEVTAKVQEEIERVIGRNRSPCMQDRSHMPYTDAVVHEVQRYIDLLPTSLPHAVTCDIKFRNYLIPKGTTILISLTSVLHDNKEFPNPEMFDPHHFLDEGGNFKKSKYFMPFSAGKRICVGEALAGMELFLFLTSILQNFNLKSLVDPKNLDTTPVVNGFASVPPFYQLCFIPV
Sequence of CYP2C19 (P33261 whole entry): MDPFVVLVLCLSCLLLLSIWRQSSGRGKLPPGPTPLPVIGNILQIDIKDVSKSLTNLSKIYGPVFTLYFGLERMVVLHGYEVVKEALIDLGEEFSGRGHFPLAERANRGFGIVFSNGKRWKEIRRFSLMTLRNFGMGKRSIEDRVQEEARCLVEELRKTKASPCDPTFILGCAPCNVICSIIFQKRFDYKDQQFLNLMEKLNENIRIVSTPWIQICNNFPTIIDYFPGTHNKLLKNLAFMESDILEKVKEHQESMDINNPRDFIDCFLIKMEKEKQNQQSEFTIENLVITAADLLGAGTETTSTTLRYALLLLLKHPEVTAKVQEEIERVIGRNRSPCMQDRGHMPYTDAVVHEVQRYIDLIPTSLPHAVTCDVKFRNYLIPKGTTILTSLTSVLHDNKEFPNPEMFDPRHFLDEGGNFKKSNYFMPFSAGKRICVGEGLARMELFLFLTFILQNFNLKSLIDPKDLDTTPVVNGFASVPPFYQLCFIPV
Sequence of CYP3A4 (P08684 whole entry): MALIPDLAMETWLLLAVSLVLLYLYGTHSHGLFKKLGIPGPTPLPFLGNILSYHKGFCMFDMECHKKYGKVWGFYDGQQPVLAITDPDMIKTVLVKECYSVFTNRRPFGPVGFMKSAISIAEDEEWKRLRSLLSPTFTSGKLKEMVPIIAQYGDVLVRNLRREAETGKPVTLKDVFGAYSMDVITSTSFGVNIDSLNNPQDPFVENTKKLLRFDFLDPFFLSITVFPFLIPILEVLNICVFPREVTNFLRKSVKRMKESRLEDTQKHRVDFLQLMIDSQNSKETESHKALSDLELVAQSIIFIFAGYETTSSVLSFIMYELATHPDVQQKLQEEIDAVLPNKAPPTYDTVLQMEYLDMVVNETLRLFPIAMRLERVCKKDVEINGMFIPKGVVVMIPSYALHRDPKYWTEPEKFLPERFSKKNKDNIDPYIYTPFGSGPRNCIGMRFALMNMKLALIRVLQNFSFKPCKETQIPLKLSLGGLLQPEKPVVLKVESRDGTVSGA
Sequence of CYP2D6 (P10635 whole entry): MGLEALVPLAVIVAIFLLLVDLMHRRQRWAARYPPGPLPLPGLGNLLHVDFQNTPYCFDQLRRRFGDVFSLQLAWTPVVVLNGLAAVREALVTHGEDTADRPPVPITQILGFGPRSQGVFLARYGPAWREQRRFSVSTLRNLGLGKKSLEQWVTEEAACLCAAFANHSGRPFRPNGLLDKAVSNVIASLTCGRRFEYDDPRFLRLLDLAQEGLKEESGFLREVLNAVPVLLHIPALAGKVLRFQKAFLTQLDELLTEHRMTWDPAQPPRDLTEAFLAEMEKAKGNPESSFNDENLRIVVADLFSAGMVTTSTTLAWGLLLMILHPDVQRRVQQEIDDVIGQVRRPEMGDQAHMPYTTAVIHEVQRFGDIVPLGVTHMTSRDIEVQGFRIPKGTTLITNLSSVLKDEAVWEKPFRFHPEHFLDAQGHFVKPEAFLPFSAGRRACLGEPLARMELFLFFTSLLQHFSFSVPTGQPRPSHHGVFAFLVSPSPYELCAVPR

inhibition at 10 µM (CYP3A4): 73%
inhibition at 10 µM (CYP2C9): 78.2%
AUC/dose [2]: 154.3 ng·h/mL
AUC(0-t) [3]: 771 ng·h/mL
inhibition (Homo sapiens): inactive
remaining at 0.5 h [8]: 94.5%
Vd [9]: 31.2 L/kg
MRT inf [10]: 5.4 h
inhibition [11]: Active
C0 [12]: 342 ng/mL
inhibition [13]: Active
inhibition at 10 µM (CYP1A2): > 100%
CL/F [14]: 47.3 mL/min
inhibition at 10 µM (CYP2D6): 55.3%
AUC [15]: 1059 ng·h/mL
MRT inf [17]: 15 h
remaining at 0.5 h [19]: 62.8%
AUC(0-t) [20]: 1030 ng·h/mL
inhibition [22]: Active
inhibition at 10 µM (CYP2C19): 56.3%
AUC/dose [28]: 103.2 ng·h/mL
half-life [29]: 4.4 h
Tmax [31]: 4 h
inhibition [35]: Active
remaining at 2 h [37]: 100%
F [38]: 66.9%
half-life [40]: 9.6 h
clearance [41]: 84.5 mL/min
inhibition [43]: Active
remaining at 2 h [46]: 98.3%
AUC [47]: 2957 ng·h/mL
Cmax [48]: 159 ng/mL
Vd [49]: 3.6 L/kg
SMILES: COc1c(C(=O)Nc2ccc3c(C)nn(CCC4CCN(C)CC4)c3c2)ccc2c1C=CC(C)(C)O2
Activity [1]: Active
Activity [4]: Active
Activity [5]: Non-Toxic
inhibition at 30 µM (hERG (KCNH2) [6]): 87.1%
Activity (HEK293): Toxic
inhibition at 10 µM (hERG (KCNH2) [7]): 57%
inhibition at 10 µM (JIMT-1): < 20%
IC50 [16]: 6.86 µM
Activity [18]: Non-Toxic
Activity (BT-474 [21]): Active
Activity [23]: Non-Toxic
Activity (BT-474 [24]): Active
Activity (BT-474 [25]): Active
Activity (BT-474 [26]): Active
Activity [27]: Active
inhibition at 3 µM (hERG (KCNH2) [30]): 30.4%
Activity [32]: Active
IC50 [33]: 4.42 µM
Activity [34]: Active
inhibition at 10 µM (BT-474 [36]): < 20%
Activity [39]: Active
Activity [42]: Active
Activity [44]: Non-Toxic
Activity [45]: Non-Toxic
